Reference: patent US20230086703A1, “N-(4-(5-chloropyridin-3-yl)phenyl)-2-(2-(cyclopropanesulfonamido)pyrimidin-4-yl) butanamide derivatives and related compounds as human CTPS1 inhibitors for the treatment of proliferative diseases” (Step Pharma S.A.S., priority 2019, published 2023)

Target: T1, human CTPS1 (Homo sapiens, UniProt P17812)
T1 construct: FLAG (with GG linker); His8 (with GG linker); purchased Proteros biostructures GmbH
T1 sequence (P17812 1-591): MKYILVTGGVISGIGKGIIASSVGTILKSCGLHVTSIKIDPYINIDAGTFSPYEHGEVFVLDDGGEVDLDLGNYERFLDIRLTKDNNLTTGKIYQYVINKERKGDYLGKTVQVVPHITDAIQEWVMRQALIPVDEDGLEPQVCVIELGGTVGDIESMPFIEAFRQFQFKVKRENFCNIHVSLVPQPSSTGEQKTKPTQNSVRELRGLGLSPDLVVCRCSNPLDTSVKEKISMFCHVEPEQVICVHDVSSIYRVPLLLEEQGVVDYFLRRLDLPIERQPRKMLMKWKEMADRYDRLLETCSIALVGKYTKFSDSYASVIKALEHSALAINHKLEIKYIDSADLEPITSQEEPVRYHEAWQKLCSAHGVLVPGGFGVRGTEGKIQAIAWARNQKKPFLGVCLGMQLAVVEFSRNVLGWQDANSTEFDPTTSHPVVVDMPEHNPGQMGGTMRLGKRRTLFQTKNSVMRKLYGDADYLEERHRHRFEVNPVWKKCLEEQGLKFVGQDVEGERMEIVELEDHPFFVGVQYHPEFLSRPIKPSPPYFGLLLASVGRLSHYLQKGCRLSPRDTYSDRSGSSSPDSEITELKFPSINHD
Assay: RapidFire/MS-based enzyme selectivity assay (human CTPS1 versus CTPS2), CTPS1 isoform
Format: biochemical
Conditions: RapidFire/MS IC50 values of CTPS1 and CTPS2
In short: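 Full-length C-terminal FLAG-His-tagged CTPS1 (1-591) was preincubated 10 min at 25 °C with compound in HEPES pH 8.0 buffer with MgCl2, KCl, DTT and Tween-20. Reactions were started with a 2× mix of ATP 0.3 mM, UTP 0.2 mM, GTP 0.07 mM and L-glutamine 0.1 mM, and run in the linear phase at 25 °C. IC50 comes from the RapidFire-MS ratio of CTP to 13C9-15N3-CTP.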

| SMILES | Selectivity (fold selectivity between CTPS1 and CTPS2) (Table 15) | Selectivity (fold selectivity between CTPS1 and CTPS2) (Table 17) |
| --- | --- | --- |
| CCOc1cncc(-c2ccc(NC(=O)C3(c4ccnc(NS(=O)(=O)C5CC5)n4)CCCC3)nc2)n1 [P136, 1-(2-(cyclopropanesulfonamido)pyrimidin-4-yl)-N-(5-(6-ethoxypyrazin-2-yl)pyridin-2-yl)cyclopentane-1-carboxamide] | +++ (>60 fold (+++)) |  |
| CCOc1cncc(-c2ccc(NC(=O)C3(c4ccnc(NS(=O)(=O)C5CC5)n4)CCOCC3)c(F)c2)n1 [P143, 4-(2-(cyclopropanesulfonamido)pyrimidin-4-yl)-N-(4-(6-ethoxypyrazin-2-yl)-2-fluorophenyl)tetrahydro-2H-pyran-4-carboxamide] | +++ (>60 fold (+++)) |  |
| CCOc1cncc(-c2ccc(NC(=O)C(CCOC)c3ccnc(NS(=O)(=O)C4CC4)n3)nc2)n1 (stereo not shown) [P145, 2-(2-(cyclopropanesulfonamido)pyrimidin-4-yl)-N-(5-(6-ethoxypyrazin-2-yl)pyridin-2-yl)-4-methoxybutanamide] | +++ (>60 fold (+++)) |  |
| CCOc1cncc(-c2ccc(NC(=O)C(CCOC)c3ccnc(NS(=O)(=O)C4CC4)n3)c(F)c2)n1 (stereo not shown) [P146, 2-(2-(cyclopropanesulfonamido)pyrimidin-4-yl)-N-(4-(6-ethoxypyrazin-2-yl)-2-fluorophenyl)-4-methoxybutanamide] | +++ (>60 fold (+++)) |  |
| CCOc1cncc(-c2ccc(NC(=O)C(F)(CC)c3ccnc(NS(C)(=O)=O)n3)nc2)n1 (stereo not shown) [P151, N-(5-(6-ethoxypyrazin-2-yl)pyridin-2-yl)-2-fluoro-2-(2-(methylsulfonamido)pyrimidin-4-yl)butanamide] | +++ (>60 fold (+++)) |  |
| CCOc1cncc(-c2cnc(NC(=O)C(CC)c3ccnc(NS(=O)(=O)C4CC4)n3)c(C)c2)n1 (stereo not shown) [P155, 2-(2-(cyclopropanesulfonamido)pyrimidin-4-yl)-N-(5-(6-ethoxypyrazin-2-yl)-3-methylpyridin-2-yl)butanamide] | + (2-30 fold (+)) |  |
| CCC(C(=O)Nc1ncc(-c2cncc(OC)n2)cc1F)c1ccnc(NS(=O)(=O)C2CC2)n1 (stereo not shown) [P158, 2-(2-(cyclopropanesulfonamido)pyrimidin-4-yl)-N-(3-fluoro-5-(6-methoxypyrazin-2-yl)pyridin-2-yl)butanamide] | + (2-30 fold (+)) |  |
| CCC(C(=O)Nc1ccc(-c2cncc(OC)n2)cn1)c1ccnc(NS(=O)(=O)C2CC2)n1 (stereo not shown) [P159, 2-(2-(cyclopropanesulfonamido)pyrimidin-4-yl)-N-(5-(6-methoxypyrazin-2-yl)pyridin-2-yl)butanamide] | +++ (>60 fold (+++)) |  |
| CCOc1cncc(-c2ccc(NC(=O)C(CC)c3ccnc(NS(=O)(=O)C4CC4)n3)c(C)c2)n1 (stereo not shown) [P161, 2-(2-(cyclopropanesulfonamido)pyrimidin-4-yl)-N-(4-(9-ethoxypyrazin-2-yl)-2-methylphenyl)butanamide] | + (2-30 fold (+)) |  |
| CCOc1cncc(-c2cnc(NC(=O)C(CC)c3ccnc(NS(=O)(=O)C4CC4)n3)c(F)c2)n1 (stereo not shown) [P162, 2-(2-(cyclopropanesulfonamido)pyrimidin-4-yl)-N-(5-(6-ethoxypyrazin-2-yl)-3-fluoropyridin-2-yl)butanamide] | ++ (>30-60 fold (++)) |  |
| CCOc1cncc(-c2ccc(NC(=O)C(C)(CC)c3ccnc(NS(=O)(=O)C4CC4)n3)nc2)n1 (stereo not shown) [P163, 2-(2-(cyclopropanesulfonamido)pyrimidin-4-yl)-N-(5-(6-ethoxypyrazin-2-yl)pyridin-2-yl)-2-methylbutanamide] | +++ (>60 fold (+++)) |  |
| CCOc1cncc(-c2ccc(NC(=O)C(OC)c3ccnc(NS(=O)(=O)C4CC4)n3)cc2)n1 (stereo not shown) [P164, 2-(2-(cyclopropanesulfonamido)pyrimidin-4-yl)-N-(4-(6-ethoxypyrazin-2-yl)phenyl)-2-methoxyacetamide] | + (2-30 fold (+)) |  |
| CCOc1cncc(-c2ccc(NC(=O)C(CC)c3cccc(NS(=O)(=O)C4CC4)n3)nc2)n1 (stereo not shown) [P188, 2-(6-(cyclopropanesulfonamido)pyridin-2-yl)-N-(5-(6-ethoxypyrazin-2-yl)pyridin-2-yl)butanamide] | ++ (>30-60 fold (++)) |  |
| CCOc1cncc(-c2ccc(NC(=O)C(CC)c3cccc(NS(=O)(=O)C4CC4)n3)cc2)n1 (stereo not shown) [P191, 2-(6-(cyclopropanesulfonamido)pyridin-2-yl)-N-(4-(6-ethoxypyrazin-2-yl)phenyl)butanamide] | ++ (>30-60 fold (++)) |  |
| CCOc1cncc(-c2ccc(NC(=O)C(C)(C)c3cncc(NS(=O)(=O)C4CC4)n3)nc2)n1 [P195, 2-(6-(cyclopropanesulfonamido)pyrazin-2-yl)-N-(5-(6-ethoxypyrazin-2-yl)pyridin-2-yl)-2-methylpropanamide] | +++ (>60 fold (+++)) |  |
| CCOc1cncc(-c2ccc(NC(=O)C(C)(C)c3cncc(NS(=O)(=O)C4CC4)n3)cc2)n1 [P196, 2-(6-(cyclopropanesulfonamido)pyrazin-2-yl)-N-(4-(6-ethoxypyrazin-2-yl)phenyl)-2-methylpropanamide] | +++ (>60 fold (+++)) |  |
| CCOc1cncc(-c2ccc(NC(=O)C3(c4cncc(NS(=O)(=O)C5CC5)n4)CCOCC3)nc2)n1 [P197, 4-(6-(cyclopropanesulfonamido)pyrazin-2-yl)-N-(5-(6-ethoxypyrazin-2-yl)pyridin-2-yl)tetrahydro-2H-pyran-4-carboxmaide] | +++ (>60 fold (+++)) |  |
| CCOc1cncc(-c2ccc(NC(=O)C(C)(CCOC)c3cncc(NS(=O)(=O)C4CC4)n3)nc2)n1 (stereo not shown) [P198, 2-(6-(cyclopropanesulfonamido)pyrazin-2-yl)-N-(5-(6-ethoxypyrazin-2-yl)pyridin-2-yl)-4-methoxy-2-methylbutanamide] | +++ (>60 fold (+++)) |  |
| CCOc1cncc(-c2ccc(NC(=O)C(F)(CC)c3cncc(NS(=O)(=O)C4CC4)n3)nc2)n1 (stereo not shown) [P200, 2-(6-(cyclopropanesulfonamido)pyrazin-2-yl)-N-(5-(6-ethoxypyrazin-2-yl)pyridin-2-yl)-2-fluorobutanamide] | ++ (>30-60 fold (++)) |  |
| CCOc1cncc(-c2ccc(NC(=O)C(CC)c3cncc(NS(=O)(=O)C4CC4)n3)nc2)n1 (stereo not shown) [P201, 2-(6-(cyclopropanesulfonamido)pyrazin-2-yl)-N-(5-(6-ethoxypyrazin-2-yl)pyridin-2-yl)butanamide] | +++ (>60 fold (+++)) |  |
| CCOc1cncc(-c2ccc(NC(=O)C(CC)c3cncc(NS(=O)(=O)C4CC4)n3)cc2)n1 (stereo not shown) [P202, 2-(6-(cyclopropanesulfonamido)pyrazin-2-yl)-N-(4-(6-ethoxypyrazin-2-yl)phenyl)butanamide] | +++ (>60 fold (+++)) |  |
| CCOc1cncc(-c2ccc(C(=O)NC(CC)c3ccnc(NS(=O)(=O)C4CC4)n3)c(F)c2)n1 (stereo not shown) [P216, N-(1-(2-(cyclopropanesulfonamido)pyrimidin-4-yl)propyl)-4-(6-ethoxypyrazin-2-yl)-2-fluorobenzamide] | +++ (>60 fold (+++)) |  |
| CC(C)Oc1cncc(-c2ccc(C(=O)NC(C)(C)c3cncc(NS(=O)(=O)C4CC4)n3)c(F)c2)n1 [P221, N-(2-(6-(cyclopropanesulfonamido)pyrazin-2-yl)propan-2-yl)-2-fluoro-4-(6-isopropoxypyrazin-2-yl)benzamide] | + (2-30 fold (+)) |  |
| CC(C)(NC(=O)c1ccc(-c2cncc(C(F)(F)F)n2)cc1)c1cncc(NS(=O)(=O)C2CC2)n1 [P222, N-(2-(6-(cyclopropanesulfonamido)pyrazin-2-yl)propan-2-yl)-4-(6-(trifluoromethyl)pyrazin-2-yl)benzamide] | + (2-30 fold (+)) |  |
| CCOc1cncc(-c2ccc(NC(=O)C3(c4ccnc(NS(=O)(=O)C5CC5)n4)CCC(=O)CC3)nc2)n1 [P226, 1-(2-(Cydopropanesulfonamido)pyrimidin-4-yl)-N-(5-(6-ethoxypyrazin-2-yl)pyridin-2-yl)-4-oxocyclohexanecarboxamide] |  | +++ (>60 fold (+++)) |
| CCOc1cncc(-c2ccc(NC(=O)C3(c4ccnc(NS(=O)(=O)C5CC5)n4)CCC(F)(F)CC3)nc2)n1 [P242] |  | +++ (>60 fold (+++)) |
| CCOc1cncc(-c2ccc(NC(=O)C3(c4ccnc(NS(=O)(=O)C5CC5)n4)CCC4(CC3)OCCO4)nc2)n1 [P244, 8-(2-(cydopropanesulfonamido)pyrimidin-4-yl)-N-(5-(6-ethoxypyrazin-2-yl)pyridin-2-yl)-1,4-dioxaspiro[4.5]decane-8-carboxamide] |  | +++ (>60 fold (+++)) |
| CCOc1cncc(-c2ccc(NC(=O)C3(c4ccnc(NS(=O)(=O)N(C)C)n4)CCOCC3)nc2)n1 [P248] |  | +++ (>60 fold (+++)) |
